Assay results published in patent US20060094003A1, “Acetylcholine-dependent current as a novel ionic target for atrial fibrillation” (priority 2004, published 2006).
pIC50: −log10 of the molar value. “And” between values parts separate entries of the source, which are not always exact repeats. Equal entries are not always repeated.

System: IKH
Assay type: cell-based, canine
Protocol: Adult mongrel dogs of either sex (weighing about 20-35 kg) were anaesthetized with pentobarbital (30 mg kg^−1 I.V.) and artificially ventilated with room air. Hearts and adjacent lung tissue were relatively quickly excised through a left lateral thoracotomy and immersed in oxygenated Tyrode solution (composition detailed hereinbelow) at room temperature. […] A left atrial (LA) preparation with the PVs intact was perfused via the left circumflex coronary artery, and subjected to either standard fine-tipped microelectrode recording of action potentials (APs) or cardiomyocyte isolation with collagenase-containing solutions, as previously described (Ehrlich et al. 2003). Six dogs were subjected to atrial tachycardia-induced remodeling induced by 1 week of atrial pacing at about 400 beats min^−1 after ablation of the AV node, as described in Li et al. 1999. Animal care and handling procedures followed the guidelines of the Canadian Council on Animal Care.
To isolate LA and PV cardiomyocytes, the proximal circumflex artery was cannulated and the distal ends of PV myocardial sleeves (approximately 1-1.5 cm from the PV-LA junction) were marked with silk thread prior to subsequent enzyme perfusion with collagenase (100 U ml^−1, Worthington, type II), in order to facilitate localization of PV sleeves after enzymatic digestion. […] All comparisons were based on PV and LA cardiomyocytes isolated from each dog on each experimental day. After isolation, cells were stored at 4° C. and studied on the same day. For standard microelectrode experiments, intact tissue preparations including the LA and adjacent PVs were mounted in a chamber and perfused via the circumflex artery with oxygenated Krebs solution at 36±0.5° C. (see for example Kneller et al. 2002).
Currents were recorded with the whole-cell patch-clamp technique at 36±0.5° C., as described in Yue et al. 1996. All junction potentials were zeroed prior to formation of gigaohm seals. […] Capacitance was assessed using 5 mV, 10 ms hyperpolarizing steps from a holding potential (HP) of −60 mV. […] Original recordings are shown in terms of current amplitude, but mean data are presented as current density (pA pF−1) to control for variability in cell size.
Currents were recorded with hyperpolarizing and depolarizing pulses (generally 4 s duration) from a HP of −40 mV to selected test potentials (TPs). Recordings were repeated 3 times, and mean values obtained. For the determination of reversal potentials, tail currents were recorded after 1.6 s pulses to −120 mV followed by 3.2 s depolarizations to TPs between −110 and +20. All voltage protocols were delivered at 0.1 Hz.
Tyrode solution contained (mM): NaCl 136, KCl 5.4, MgCl2 1, CaCl2 1, NaH2PO4 0.33, Hepes 5 and dextrose 10 (pH 7.35 with NaOH). The cell-storage solution contained (mM): KCl 20, KH2PO4 10, dextrose 10, mannitol 40, L-glutamic acid 70, β-OH-butyric acid 10, taurine 20, EGTA 10 and 0.1% bovine serum albumin (pH 7.3, KOH). Nifedipine (5 μM) was used to suppress L-type Ca^2+ current (ICa) in all experiments. 4-Aminopyridine (4-AP, 2 mM) was added to suppress transient outward current (Ito). […] Na+ current (INa) contamination was avoided by using a HP of −40 mV for recording of hyperpolarization-induced currents and by substitution of equimolar Tris-HCl for external NaCl for tail-current recordings.

With tertiapin-Q the “effect on time-dependent IKH (in words)” value (200 nM tertiapin-Q, PV cardiomyocyte) was “abolished”, the “effect on time-dependent current (in words)” value (1 μM tertiapin-Q, PV cardiomyocytes) was “eliminated” and the pIC50 (at −120 mV, PV cardiomyocytes, read-out: IC50 for time-dependent IKH) was 8.00 and ~8.00. For the same substance, the mean end-pulse current (at −120 mV, after 200 nM tertiapin-Q (before −2.84±0.89)) was 0.09±0.01 pA pF^−1.
